{"source": "patent US10154970B2", "about": "“Methods for immunomodulation of cancer and infectious disease therapy” (The Regents of the University of California, priority 2014, dated 2018)", "key": {"IFN-γ [1]": {"test_system": "IFN-γ", "conditions": "for antigen-specific immune response to the PV: short-course treatment", "procedure": "FIG. 5. Effect of TRIP on the immune response to an antigen-specific peptide vaccine (PV). Mice received 8 weekly 10-μg doses of PV and daily oral TRIP treatment for the final 16 days of the study. Lymphocytes were isolated 48 hours after the final dose of PV for the enzyme-linked immunosorbent spot (ELISpot) assay. Data are expressed as the number of spot forming cells (SFC)/500,000 lymphocytes following exposure to medium (no peptide), scrambled peptide, and BP25 peptide.\n(§1) A total of 43 wild type C57BL/6 mice were assigned to four different treatment groups: Control (n=10); and TRIP (i.e., ospemifene) 10, 50, and 100 mg/kg (n=11, all TRIP groups). All mice received a full course of tecemotide (L-BLP25) peptide vaccine (PV) immunotherapy (eight weekly 10 μg doses administered subcutaneously (s.c.) as described in Wurz G T. et al., J. Transl. Med., 11:64 (2013)). During the final 16 days of immunotherapy, mice received daily oral doses of TRIP according to treatment group assignment. TRIP oral dosing solutions were prepared by dissolving an appropriate amount of the drug in pure dimethyl sulfoxide (DMSO) and then adding peanut oil to the desired final concentration (final DMSO concentration was 2%). All doses were administered in a volume of 100 μl using 20-gauge stainless steel oral feeding needles. Control mice were given diluent only. Forty-eight hours following the final dose of PV, all mice were euthanized for the collection of blood for cytokine analysis by multiplex and spleens for assessing immune response by enzyme-linked immunosorbent spot (ELISpot) assay.\n(§2) Data are expressed as the number of spot forming cells (SFC)/500,000 lymphocytes following exposure to medium (no peptide), scrambled peptide, and BP25 peptide."}, "IL-4": {"test_system": "IL-4", "procedure": "as §1, §2"}, "IFN-γ [2]": {"test_system": "IFN-γ", "conditions": "non-tumor bearing mice, 48 hours after final PV dose", "procedure": "(§3) FIG. 6. Effect of TRIP and PV combination treatment on serum cytokine levels. Serum cytokines were assessed by multiplex immunoassay 48 hours following the final dose of PV, which was administered as 8 weekly 10-μg doses. TRIP was administered daily for the last 14 days of the study.\nas §1"}, "IL-6": {"test_system": "IL-6", "procedure": "as §3, §1"}, "IFN-γ [3]": {"test_system": "IFN-γ", "assay": "Experiment 5: serum IFN-γ cytokine analysis", "format": "in vivo, human MUC1.Tg C57BL/6 mice", "conditions": "TRIP 100 mg/kg or letrozole 0.8 mg/kg daily oral 14 days", "procedure": "FIG. 13. Effects of TRIP on serum IFN-γ compared to estradiol and letrozole. Serum IFN-γ from untreated control, TRIP (100 mg/kg), estradiol (E2; 25 μg/kg), and letrozole (0.8 mg/kg) groups were analyzed following daily treatment for 14 days (n=8 all groups). **p<0.01, ***p<0.001.\nTRIP and letrozole were prepared in DMSO and peanut oil as described above in Experiment 2 and administered daily for 14 days by oral gavage (100 μL). Estradiol was dissolved in 100% ethanol, diluted in PBS to achieve the desired concentration, and then administered daily for 14 days by s.c. injection at rotating sites using a 25-gauge needle. In Week 19, the study was terminated, 24 hours after the last treatments, and serum and spleens were collected for surface marker and Treg analyses."}, "IFN-γ [4]": {"test_system": "IFN-γ", "conditions": "chronic daily TRIP 50 mg/kg + two cycles of PV", "procedure": "(§4) FIG. 15. […] Antigen-specific IFN-γ immune response was assessed by ELISpot 48 hours following two cycles of peptide vaccine (PV).\n(§5) A total of 55 mixed-sex hMUC1.Tg C57BL/6 mice, starting at approximately five weeks of age, were treated with urethane as described above. Approximately six weeks after the last dose of urethane, mice were randomized into four treatment groups of approximately equal average weight: Control (n=22); TRIP (i.e., ospemifene) 50 mg/kg (n=16); tecemotide (L-BLP25) peptide vaccine (PV) (n=6); and TRIP+PV (n=11). At this time (Week 21), mice assigned to the […] began treatment with the first of two cycles consisting of eight weekly 10 μg doses each, with approximately four weeks between cycles. Cycle 1 was administered during Weeks 21-28, and Cycle 2 from Weeks 32-39. The PV was prepared and administered as described above. Mice in the TRIP groups began daily oral treatment in Week 31, which continued through the end of the study (approximately eight weeks of dosing). TRIP was prepared and administered as described above. Mice not assigned to TRIP treatment received daily oral doses of diluent. At the conclusion of the study, 48 h after the final dose of PV and 24 h after the last dose of TRIP, all mice were euthanized for the collection of serum and spleens, which were processed as described above for multiplex serum cytokine, Treg, and CTL analyses."}, "[5]": {"test_system": "cytotoxic T lymphocyte activity", "procedure": "as §4, §5"}, "[6]": {"test_system": "mouse breast cancer cells expressing the PV target antigen (BP25)", "assay": "Example 6: tumor volume of breast cancer allografts", "format": "in vivo, C57BL/6 wild type mice", "conditions": "three daily oral doses TRIP 100 mg/kg before each of four weekly 100 μg PV; Days 22 and 25", "description": "Antitumor effects and serum IFN-γ immune response to peptide vaccine immunotherapy alone and in combination with TRIP immunomodulator. Each of four weekly 100-μg injections of peptide vaccine (PV) was preceded by three daily oral doses of TRIP (100 mg/kg). All mice were implanted with breast cancer allografts on Day 0, and serum was collected on Day 28 following four weeks of treatment. Tumor volumes were measured twice each week. For all treatment groups, n=8.\nA total of 32 female C57BL/6 wild type mice were assigned to four treatment groups (n=8): Control; TRIP (i.e., ospemifene) 100 mg/kg; tecemotide (L-BLP25) peptide vaccine (PV) (100 μg); and TRIP 100 mg/kg combined with 100 μg PV. On Day 0 of the study, all 32 mice were subcutaneously implanted with 1.0×10^6 mouse breast cancer cells expressing the PV target antigen (BP25). Two days later, mice began a three-day regimen of once daily 100 mg/kg TRIP administered orally. On Day 5, mice were administered their first weekly 100 μg dose of PV by subcutaneous injection. This treatment schedule was repeated for a total of four weeks. Tumor growth was assessed twice weekly. All mice were euthanized on Day 28 for the collection of serum and spleens to assess immune response to treatment. Immune response was assessed by performing IFN-γ ELISpot."}, "IFN-γ [7]": {"test_system": "IFN-γ", "assay": "Example 6: serum IFN-γ on Day 28 in allograft-bearing mice", "format": "in vivo, C57BL/6 wild type mice", "conditions": "Day 28, 48 hours after final PV dose; TRIP 100 mg/kg", "description": "Each of four weekly 100-μg injections of peptide vaccine (PV) was preceded by three daily oral doses of TRIP (100 mg/kg). All mice were implanted with breast cancer allografts on Day 0, and serum was collected on Day 28 following four weeks of treatment. […] For all treatment groups, n=8.\nA total of 32 female C57BL/6 wild type mice were assigned to four treatment groups (n=8): Control; TRIP (i.e., ospemifene) 100 mg/kg; tecemotide (L-BLP25) peptide vaccine (PV) (100 μg); and TRIP 100 mg/kg combined with 100 μg PV. On Day 0 of the study, all 32 mice were subcutaneously implanted with 1.0×10^6 mouse breast cancer cells expressing the PV target antigen (BP25). Two days later, mice began a three-day regimen of once daily 100 mg/kg TRIP administered orally. On Day 5, mice were administered their first weekly 100 μg dose of PV by subcutaneous injection. This treatment schedule was repeated for a total of four weeks. […] All mice were euthanized on Day 28 for the collection of serum and spleens to assess immune response to treatment. Immune response was assessed by performing IFN-γ ELISpot."}, "[8]": {"test_system": "pro-inflammatory cytokines (IL-6, IP-10, MIG, IL-1β, KC)", "description": "Serum was analyzed by multiplex immunoassay 24 hours following the last dose of TRIP at each time point.\nFollowing induction of lung cancer as described (Wurz G T. et al., J. Transl. Med., 11:64 (2013)), mice were randomized into four treatment groups: Control; and TRIP (i.e., ospemifene) 5, 25, and 50 mg/kg (n=12, all groups). TRIP and control solutions were orally administered by gavage according to treatment group. After 30 days of treatment (Week 20), a total of 16 mice, four from each treatment group, were euthanized, and whole blood was collected by cardiac puncture. The remaining mice continued daily TRIP treatments. An additional 16 mice, four from each treatment group, were euthanized following 60 (Week 24) and 90 (Week 28) days of treatment, and whole blood and livers were collected. Serum samples were subjected to multiplex cytokine analysis for TH1 (IL-2, IL-12, IFN-γ, TNF-α), TH2 (IL-4, IL-5, IL-10, IL-13) and inflammatory cytokines (MIP-1α, IP-10, MIG, IL-1β, IL-6, KC).\nTerminal serum pro-inflammatory cytokines (IL-6, IP-10, MIG, IL-1β, KC) were analyzed 24 hours after the last dose at each time point (FIG. 7)."}, "[9]": {"conditions": "TRIP 10, 50, 100 mg/kg daily oral final 16 days + 8 weekly 10 μg PV s.c."}, "[10]": {"conditions": "chronic daily TRIP 50 mg/kg + PV"}}, "note": "Where two headings read alike, the source gives them in different places."}
{"smiles": "OCCOc1ccc(/C(=C(/CCCl)c2ccccc2)c2ccccc2)cc1", "note": "[TRIP, Z-2-[4-(4-chloro-1,2-diphenyl-but-1-enyl)-phenoxy]ethanol]", "values": [{"measurement": "IFN-γ immune response by ELISpot, TRIP combined with PV vs PV alone", "setting": "IFN-γ [1]; [9]", "result": "significantly increase"}, {"measurement": "antigen-specific immune response to the PV", "setting": "IFN-γ [1]; high (100 mg/kg) dose of TRIP", "result": "significantly increased"}, {"measurement": "antigen-specific immune response to the PV", "setting": "IFN-γ [1]; low (10 mg/kg) dose of TRIP", "result": "significantly increased"}, {"measurement": "IL-4 response, PV + 50 mg/kg TRIP vs PV alone", "setting": "IL-4; TRIP 50 mg/kg daily oral final 16 days + PV", "result": "No significant difference"}, {"measurement": "IL-4 immune response by ELISpot, TRIP combined with PV", "setting": "IL-4; [9]", "result": "decrease with TRIP dose"}, {"measurement": "serum IFN-γ levels, TRIP and PV vs PV alone", "setting": "IFN-γ [2]", "result": "increased"}, {"measurement": "serum concentrations of IL-6, TRIP 100 mg/kg and PV compared to PV alone", "setting": "IL-6; TRIP 100 mg/kg + PV", "result": "significantly lower"}, {"measurement": "serum IL-6 concentrations, TRIP and PV vs PV alone", "setting": "IL-6; non-tumor bearing mice, 48 hours after final PV dose", "result": "dose-dependently decreased"}, {"measurement": "serum IFN-γ concentrations compared to estradiol", "setting": "IFN-γ [3]", "result": "significantly increased"}, {"measurement": "PV-induced, antigen-specific immune response (IFN-γ ELISpot)", "setting": "IFN-γ [4]", "result": "significantly decreased"}, {"measurement": "CTL activity of the combination over that of PV alone", "setting": "[5]; [10]", "result": "increased CTL activity"}, {"measurement": "additive CTL activity in combination with PV", "setting": "[5]; [10]", "result": "no additive CTL activity"}, {"measurement": "CTL activity compared to control", "setting": "[5]; chronic daily TRIP 50 mg/kg alone", "result": "slightly, but not significantly increased"}, {"measurement": "tumor volume compared to the control group, PV in combination with TRIP", "setting": "[6]", "result": "reduced tumor volume"}, {"measurement": "serum IFN-γ compared to the control and TRIP alone treatment groups, TRIP + PV", "setting": "IFN-γ [7]", "result": "significantly increased"}, {"measurement": "pro-inflammatory serum cytokine levels", "setting": "[8]; TRIP 5, 25, 50 mg/kg daily oral, 30, 60, 90 days, compared to control group", "result": "decreasing levels"}, {"measurement": "serum IL-6 levels, control vs all doses of TRIP", "setting": "[8]; at 28 weeks (90 days of treatment)", "result": "Differences"}]}
